The values that follow come from patent US20110195951A1, “DIAZAINDOLE DERIVATIVES AND THEIR USE IN THE INHIBITION OF C-JUN N-TERMINAL KINASE” (EISAI R&D MANAGEMENT CO., LTD., priority 2008, published 2011).

Bounds are passed on as bounds.

Sequence of JNK3 (P53779 whole entry, species assumed): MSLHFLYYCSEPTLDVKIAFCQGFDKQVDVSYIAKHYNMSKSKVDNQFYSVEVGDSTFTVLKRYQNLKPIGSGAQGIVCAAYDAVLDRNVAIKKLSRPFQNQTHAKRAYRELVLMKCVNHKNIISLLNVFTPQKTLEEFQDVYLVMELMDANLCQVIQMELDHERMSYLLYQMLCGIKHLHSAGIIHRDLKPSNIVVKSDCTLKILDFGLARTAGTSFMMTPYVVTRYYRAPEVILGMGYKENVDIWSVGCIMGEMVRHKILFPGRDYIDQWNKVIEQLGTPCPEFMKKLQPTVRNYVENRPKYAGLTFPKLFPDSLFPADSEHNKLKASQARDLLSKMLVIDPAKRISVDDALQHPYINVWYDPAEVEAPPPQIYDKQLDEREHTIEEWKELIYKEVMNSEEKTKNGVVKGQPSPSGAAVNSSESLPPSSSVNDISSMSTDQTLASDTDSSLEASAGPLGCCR

The experiment concerns the target JNK3 (Homo sapiens, UniProt P53779). As to the kind of experiment: JNK3 SPA assay (phosphorylation of GST-c-Jun). Type of experiment: biochemical. The settings on record: 3.33 μM ATP, GST-c-Jun substrate, 30 minutes at room temperature, read-out: IC50 values for compounds (I) against JNK3. The method, then:
JNK1, JNK2, JNK3—SPA Assay
• 1. The compound was dissolved in DMSO to a convenient concentration and this was diluted in 10% DMSO to a five times concentrate of the desired starting concentration (frequently 1:100). • 2. 10 μl of 500 mM EDTA was added to alternative wells of the Opti-plate row, which would receive kinase reaction plus DMSO. This created the negative control. • 3. For the JNK2 and JNK3 assay, compounds were prepared in six 2-fold dilutions with water and each concentration is tested in duplicate. For the JNK1 assay compounds are prepared in four 5-fold dilutions with water which are tested in triplicate. Controls were treated identically. • 4. […] per well of each compound concentration was transferred to an Opti-plate, in duplicate. • 5. 30 μl (JNK2/3 SPA) or 50 μl (JNK1 SPA) of substrate solution (25 mM HEPES pH 7.5, 10 mM magnesium acetate with 3.33 μM ATP (JNK2/3) or 2 μM ATP (JNK1), approximately 7.5 kBq [γ-^33P] ATP, GST-c-Jun, in water) was added to each well. • 6. 50 μl (JNK2/3 SPA) or 30 μl (JNK1 SPA) of kinase solution (JNK in 25 mM HEPES pH 7.5, 10 mM Mg Acetate) was added to each well.
• 7. The plate was incubated for 30 minutes at room temperature. • 8. 100 μl of bead/stop solution was added to each well (5 mg/ml glutathione-PVT-SPA beads, 40 mM ATP in PBS). • 9. Plates were sealed and incubated for 30 minutes at room temperature, centrifuged for 10 minutes at 2500 g and counted. • 10. The IC50 values were calculated as the concentration of the compound being tested at which the phosphorylation of c-Jun was decreased to 50% of the control value.
With `Cn1cc(-c2n[nH]c3ncc([C@H]4CC[C@@H](N5CCCOCC5)CC4)cc23)cn1` [Example 3, 4-((1s,4s)-4-(3-(1-methyl-1H-pyrazol-4-yl)-1H-pyrazolo[3,4-b]pyridin-5-yl)cyclohexyl)-1,4-oxazepane], the concentration for half-maximal inhibition (IC50) is above 2000 nM. Consider `Cn1cc(-c2n[nH]c3ncc([C@H]4CC[C@H](N5CCCOCC5)CC4)cc23)cn1` [Example 2, 4-((1r,4r)-4-(3-(1-methyl-1H-pyrazol-4-yl)-1H-pyrazolo[3,4-b]pyridin-5-yl)cyclohexyl)-1,4-oxazepane], for which the IC50 is above 2000 nM. With `Cn1cc(-c2n[nH]c3ncc(C4CCCCC4)cc23)cn1` [Example 1, 5-cyclohexyl-3-(1-methyl-1H-pyrazol-4-yl)-1H-pyrazolo[3,4-b]pyridine] the figure was 1700 nM; with `Cn1cc(-c2c[nH]c3ncc(C4CCCCC4)nc23)cn1` [Example 4, 2-cyclohexyl-7-(1-methyl-1H-pyrazol-4-yl)-5H-pyrrolo[3,2-b]pyrazine], 178 nM.
